Measurements published in patent US20060069132A1, “Azolecarboxamide herbicides” (priority 2004, published 2006).

Assays:
rice [1] = assay: Test C flooded paddy test; format: in vivo, Oryza sativa; details: for Plant response rating, Rice: 500 g ai/ha, visual rating after 12 to 14 days
How it was run: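 Plants were grown to the 1- to 4-leaf stage (2–18 cm) and then treated postemergence, or grown to the 2-leaf stage for the flooded paddy test. They were held in a greenhouse for 12 to 14 days and then scored by eye against controls, where 0 is no effect and 100 is complete control.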

pigweed = assay: Test C pre-/postemergence herbicide test; format: in vivo, Amaranthus retroflexus; details: for Pigweed plant response rating: 500 g ai/ha
How it was run: (§1)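 Pre- and postemergence application, solvent/surfactant formulation; post at 1- to 4-leaf stage (2–18 cm). Greenhouse 12–14 d. Visual rating vs controls, 0 = no effect, 100 = complete control.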

rice [2] = assay: Test B pre-/postemergence herbicide test; format: in vivo, Oryza sativa; details: preemergence
How it was run: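 Evaluation is visual, comparing treated with control plants on a scale where 0 means no effect and 100 means full control. Treatments were preemergence, or postemergence on seedlings 2–18 cm tall, and held 13–15 days in the greenhouse.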

goosegrass = assay: Test C pre-/postemergence herbicide test; format: in vivo, Eleusine indica; details: for Goosegrass plant response rating: 500 g ai/ha
How it was run: as §1

redroot pigweed = assay: Test A pre-/postemergence herbicide test; format: in vivo, Amaranthus retroflexus
How it was run: (§2)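 Visual injury rating on a 0–100 scale (0 no effect, 100 complete control) versus untreated controls, about ten days after treatment in greenhouse. Pre: directed soil spray onto seeded sandy loam. Post: spray to runoff on plants 2–10 cm tall at one- to two-leaf stage.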

large crabgrass = assay: Test A pre-/postemergence herbicide test; format: in vivo, Digitaria sanguinalis
How it was run: as §2

giant foxtail = assay: Test C pre-/postemergence herbicide test; format: in vivo, Setaria faberi; details: for Foxtail, Giant plant response rating: 500 g ai/ha
How it was run: as §1

barnyardgrass = assay: Test C flooded paddy test; format: in vivo, Echinochloa crus-galli; details: for Plant response rating, Barnyardgrass: 500 g ai/ha, visual rating after 12 to 14 days
How it was run: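 Visual rating, 0 (no effect) to 100 (complete control), vs. controls at 12–14 d in greenhouse. Postemergence: 1–4-leaf plants, 2–18 cm. Paddy: flooded, barnyardgrass at 2-leaf stage.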

lambsquarters = assay: Test C pre-/postemergence herbicide test; format: in vivo, Chenopodium album; details: for Lambsquarters plant response rating: 500 g ai/ha
How it was run: as §1

[3] = 62 g ai/ha, scale 0 to 100 (0 no effect, 100 complete control)
[4] = 125 g ai/ha, scale of 0 to 100, 0 is no effect, 100 is complete control
[5] = 250 g ai/ha, scale of 0 to 100, 0 is no effect, 100 is complete control
[6] = scale 0 to 100 (0 no effect, 100 complete control)
[7] = 125 g ai/ha, scale 0 (no effect) to 100 (complete control), visual, 12 to 14 days, preemergence
[8] = Postemergence, 250 g ai/ha, scale 0 to 100, 0 no effect, 100 complete control
[9] = Preemergence, scale 0 to 100, 0 no effect, 100 complete control
[10] = postemergence, 125 g ai/ha, scale 0 to 100
[11] = postemergence, 62 g ai/ha, scale 0 to 100
[12] = 125 g ai/ha, 0 to 100 scale, 0 is no effect, 100 is complete control
[13] = Postemergence, 500 g ai/ha, 0 to 100 scale, 0 no effect, 100 complete control
[14] = Postemergence, 2000 g ai/ha, 0 to 100 scale, 0 no effect, 100 complete control
[15] = Preemergence, 500 g ai/ha, visual rating, 0 to 100 scale (0 no effect, 100 complete control)
[16] = Preemergence, 2000 g ai/ha, 0 to 100 scale, 0 no effect, 100 complete control
[17] = 250 g ai/ha, scale 0 to 100 (0 no effect, 100 complete control), visual, 12 to 14 days, preemergence
[18] = Preemergence, 2000 g ai/ha, visual rating, 0 to 100 scale (0 no effect, 100 complete control)

CCOC(=O)c1cc(NC(=O)c2cc(C(C)(C)C)nn2CC)ccc1OC [Compound 96]
Rice plant response rating (rice [1]; [3]): 40
Rice plant response rating (rice [1]; [4]): 45
Rice plant response rating (rice [1]; [5]): 70
Plant response rating, Rice (rice [1]; [6]): 75
Plant response rating (0 = no effect, 100 = complete control), Pigweed (pigweed; 62 g ai/ha, preemergence): 100
Plant response rating, Pigweed (pigweed; [7]): 100
Pigweed plant response rating (pigweed; Postemergence, scale 0 to 100): 100
Plant response rating, Pigweed (pigweed; [8]): 100
Pigweed plant response rating (pigweed; [9]): 100
Plant response rating, Pigweed (pigweed; [10]): 100
Plant response rating, Pigweed (pigweed; [11]): 70
Plant response rating, Rice (rice [2]; 500 g ai/ha, visual rating 0-100, 0 no effect, 100 complete control): 70
Plant response rating, Rice (rice [2]; [12]): 60
Plant response rating (0 = no effect, 100 = complete control), Goosegrass (goosegrass; 62 g ai/ha, preemergence): 30
Plant response rating, Goosegrass (goosegrass; [7]): 80
Goosegrass plant response rating (goosegrass; Postemergence, scale 0 to 100): 5
Plant response rating, Goosegrass (goosegrass; [8]): 5
Goosegrass plant response rating (goosegrass; [9]): 95
Plant response rating, Goosegrass (goosegrass; [10]): 5
Plant response rating, Goosegrass (goosegrass; [11]): 5
Pigweed plant response rating (redroot pigweed; [13]): 95
Plant response rating, Pigweed (redroot pigweed; [14]): 100
Pigweed plant response rating (redroot pigweed; [15]): 100
Pigweed plant response rating (redroot pigweed; [16]): 100
Crabgrass, Large plant response rating (large crabgrass; [13]): 30
Plant response rating, Crabgrass, Large (large crabgrass; [14]): 70
Crabgrass, Large plant response rating (large crabgrass; [15]): 80
Crabgrass, Large plant response rating (large crabgrass; [16]): 100
Plant response rating (0 = no effect, 100 = complete control), Foxtail, Giant (giant foxtail; 62 g ai/ha, preemergence): 70
Plant response rating, Foxtail, Giant (giant foxtail; [7]): 100
Plant response rating, Foxtail, Giant (giant foxtail; [17]): 100
Foxtail, Giant plant response rating (giant foxtail; Postemergence, scale 0 to 100): 60
Plant response rating, Foxtail, Giant (giant foxtail; [8]): 45
Foxtail, Giant plant response rating (giant foxtail; [9]): 100
Plant response rating, Foxtail, Giant (giant foxtail; [10]): 20
Plant response rating, Foxtail, Giant (giant foxtail; [11]): 10
Barnyardgrass plant response rating (barnyardgrass; [3]): 45
Barnyardgrass plant response rating (barnyardgrass; [4]): 45
Barnyardgrass plant response rating (barnyardgrass; [5]): 70
Plant response rating, Barnyardgrass (barnyardgrass; [6]): 80
Lambsquarters plant response rating (lambsquarters; Postemergence, scale 0 to 100): 100
Plant response rating, Lambsquarters (lambsquarters; [8]): 95
Plant response rating, Lambsquarters (lambsquarters; [10]): 80
Plant response rating, Lambsquarters (lambsquarters; [11]): 60

CC(=NO)c1cccc(NC(=O)c2cc(C(C)(C)C)nn2CCF)c1 [Compound 115]
Rice plant response rating (rice [1]; [3]): 55
Rice plant response rating (rice [1]; [4]): 65
Rice plant response rating (rice [1]; [5]): 75
Plant response rating, Rice (rice [1]; [6]): 75
Plant response rating (0 = no effect, 100 = complete control), Pigweed (pigweed; 62 g ai/ha, preemergence): 100
Plant response rating, Pigweed (pigweed; [7]): 100
Pigweed plant response rating (pigweed; Postemergence, scale 0 to 100): 100
Plant response rating, Pigweed (pigweed; [8]): 100
Pigweed plant response rating (pigweed; [9]): 100
Plant response rating, Pigweed (pigweed; [10]): 100
Plant response rating, Pigweed (pigweed; [11]): 100
Plant response rating, Rice (rice [2]; [12]): 0
Plant response rating (0 = no effect, 100 = complete control), Goosegrass (goosegrass; 62 g ai/ha, preemergence): 70
Plant response rating, Goosegrass (goosegrass; [7]): 80
Goosegrass plant response rating (goosegrass; Postemergence, scale 0 to 100): 70
Plant response rating, Goosegrass (goosegrass; [8]): 70
Goosegrass plant response rating (goosegrass; [9]): 100
Plant response rating, Goosegrass (goosegrass; [10]): 60
Plant response rating, Goosegrass (goosegrass; [11]): 40
Pigweed plant response rating (redroot pigweed; [13]): 95
Plant response rating, Pigweed (redroot pigweed; [14]): 100
Pigweed plant response rating (redroot pigweed; [15]): 95
Pigweed plant response rating (redroot pigweed; [18]): 100
Crabgrass, Large plant response rating (large crabgrass; [13]): 75
Plant response rating, Crabgrass, Large (large crabgrass; [14]): 80
Crabgrass, Large plant response rating (large crabgrass; [15]): 100
Crabgrass, Large plant response rating (large crabgrass; [18]): 100
Plant response rating (0 = no effect, 100 = complete control), Foxtail, Giant (giant foxtail; 62 g ai/ha, preemergence): 40
Plant response rating, Foxtail, Giant (giant foxtail; [7]): 90
Plant response rating, Foxtail, Giant (giant foxtail; [17]): 100
Foxtail, Giant plant response rating (giant foxtail; Postemergence, scale 0 to 100): 80
Plant response rating, Foxtail, Giant (giant foxtail; [8]): 60
Foxtail, Giant plant response rating (giant foxtail; [9]): 100
Plant response rating, Foxtail, Giant (giant foxtail; [10]): 40
Plant response rating, Foxtail, Giant (giant foxtail; [11]): 40
Barnyardgrass plant response rating (barnyardgrass; [3]): 30
Barnyardgrass plant response rating (barnyardgrass; [4]): 45
Barnyardgrass plant response rating (barnyardgrass; [5]): 65
Plant response rating, Barnyardgrass (barnyardgrass; [6]): 75
Plant response rating (0 = no effect, 100 = complete control), Lambsquarters (lambsquarters; 62 g ai/ha, preemergence): 100
Plant response rating, Lambsquarters (lambsquarters; [7]): 100
Lambsquarters plant response rating (lambsquarters; Postemergence, scale 0 to 100): 100
Plant response rating, Lambsquarters (lambsquarters; [8]): 100
Lambsquarters plant response rating (lambsquarters; [9]): 100
Plant response rating, Lambsquarters (lambsquarters; [10]): 100
Plant response rating, Lambsquarters (lambsquarters; [11]): 100
